Test results reported in patent US20210380525A1, “COMPOSITIONS AND METHODS FOR THE TREATMENT OF PARKINSON'S DISEASE” (Cellix Bio Private Limited, priority 2018, published 2021).

Legend:
[1] = Pharmacokinetic study: plasma L-Dopa after single subcutaneous administration of CLX-SYN-G107B-C01; assay type: in vivo, Sprague-Dawley rats; details: lowest tested dose of 50 mg/kg s.c. compared to other doses, SD rats
Protocol: (§1) The objective of this study was to determine the pharmacokinetics of L-Dopa after a single subcutaneous administration of CLX-SYN-G107B-C01 at the doses of 50, 150 and 300 mg/Kg, in male Sprague-Dawley (SD) rats.
(§2) Three groups of 5-male rats in each (age 8-10 weeks; body weight range 198-226 g) were assigned to receive CLX-SYN-G107B-C01 at the doses of 50, 150 and 300 mg/kg, by subcutaneous route. CLX-SYN-G107B-C01 was formulated in Propylene glycol and PEG-300 for subcutaneous administration. The dose volume was 2 ml/kg.
The blood samples (0.2 mL/time point) from the animals were collected at 0 (pre-dose), 0.083, 0.25, 0.5, 1, 2, 4, 8, 10, 24, 48 and 72 h post dosing after subcutaneous administration. The plasma samples were analyzed for L-Dopa using a fit-for-purpose LC-MS/MS method.

[2] = Clinical signs of toxicity in the pharmacokinetic study; assay type: in vivo; details: single s.c. dose 50, 150 and 300 mg/Kg, male SD rats
Protocol: as §1, §2

**Q.** For `CCCCCCC(=O)N[C@@H](Cc1ccc(O)c(O)c1)C(=O)OCC(COC(=O)CCCCCC)OC(=O)CCCCCC` (stereo partly drawn) [CLX-SYN-G107B-C01, 3-(((S)-3-(3,4-dihydroxyphenyl)-2-heptanamidopropanoyl)oxy)propane-1,2-diyl diheptanoate], which “Bioavailability (comparison of doses)” value [1] is on record?
**A.** The value was “enhanced bioavailability with low dose”.

**Q.** What about the “Clinical signs of toxicity” value [2] of the same compound?
**A.** Its value is “No clinical signs of toxicity were observed”.
